Earlier results, collected in patent US20150018665A1, “MOLECULAR AND CELLULAR IMAGING USING ENGINEERED HEMODYNAMIC RESPONSES” (Massachusetts Institute of Technology, priority 2013, published 2015).

Molecular target: nNOS (Homo sapiens, UniProt P29475)
Settings: blockade of nNOS

Sequence of nNOS (P29475 whole entry, species assumed): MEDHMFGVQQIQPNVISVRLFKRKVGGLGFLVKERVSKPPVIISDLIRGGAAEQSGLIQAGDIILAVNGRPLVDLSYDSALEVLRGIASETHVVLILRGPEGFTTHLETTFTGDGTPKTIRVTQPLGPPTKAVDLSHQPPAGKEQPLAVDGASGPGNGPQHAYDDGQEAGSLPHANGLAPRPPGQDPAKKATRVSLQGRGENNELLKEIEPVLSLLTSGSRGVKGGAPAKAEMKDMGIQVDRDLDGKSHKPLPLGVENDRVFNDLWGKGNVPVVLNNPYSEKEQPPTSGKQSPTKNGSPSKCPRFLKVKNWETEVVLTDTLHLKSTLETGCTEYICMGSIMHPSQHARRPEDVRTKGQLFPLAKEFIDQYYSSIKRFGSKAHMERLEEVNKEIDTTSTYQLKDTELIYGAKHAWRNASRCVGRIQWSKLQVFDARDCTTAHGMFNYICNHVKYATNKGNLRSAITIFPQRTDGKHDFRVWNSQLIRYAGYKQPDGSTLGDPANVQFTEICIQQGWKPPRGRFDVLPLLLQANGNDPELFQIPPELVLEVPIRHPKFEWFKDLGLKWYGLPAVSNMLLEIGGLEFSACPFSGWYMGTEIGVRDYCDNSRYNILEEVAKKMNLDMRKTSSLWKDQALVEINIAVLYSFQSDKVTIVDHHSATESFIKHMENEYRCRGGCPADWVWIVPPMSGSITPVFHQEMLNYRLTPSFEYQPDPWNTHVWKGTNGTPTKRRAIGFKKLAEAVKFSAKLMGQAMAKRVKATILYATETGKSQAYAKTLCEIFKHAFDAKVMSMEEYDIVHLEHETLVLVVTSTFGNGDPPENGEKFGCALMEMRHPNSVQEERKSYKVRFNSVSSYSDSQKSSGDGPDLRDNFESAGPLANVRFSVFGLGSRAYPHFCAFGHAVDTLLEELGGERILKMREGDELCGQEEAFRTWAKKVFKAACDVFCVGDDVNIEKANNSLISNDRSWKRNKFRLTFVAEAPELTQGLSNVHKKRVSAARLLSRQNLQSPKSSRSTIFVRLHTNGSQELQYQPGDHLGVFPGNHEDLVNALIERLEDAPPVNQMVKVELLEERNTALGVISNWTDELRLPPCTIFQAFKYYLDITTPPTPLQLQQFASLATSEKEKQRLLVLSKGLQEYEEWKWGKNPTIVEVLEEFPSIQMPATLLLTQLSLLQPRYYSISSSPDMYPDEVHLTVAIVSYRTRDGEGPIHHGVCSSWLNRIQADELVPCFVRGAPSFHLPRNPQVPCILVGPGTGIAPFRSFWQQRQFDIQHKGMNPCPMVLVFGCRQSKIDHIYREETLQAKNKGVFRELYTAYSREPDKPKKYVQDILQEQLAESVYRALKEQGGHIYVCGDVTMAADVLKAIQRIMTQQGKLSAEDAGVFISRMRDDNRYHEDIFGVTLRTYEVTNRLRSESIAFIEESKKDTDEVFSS

NC(=NCCC[C@H](N)C(=O)O)N[N+](=O)[O-] [L-nitroarginine]
effect on fMRI-detectable responses to stimulation: abolishes or sharply reduces
